# In patent publication US20060052384A1, “Aryl piperidine derivatives as inducers of ldl-receptor expression for the treatment of hypercholesterolemia” (priority 2002, published 2006):
# System: LDL-r promoter and the luciferase reporter gene in HepG2 cells
# Test: In vitro assay: induction of luciferase activity in HepG2 cells stably transfected with LDL-r promoter/luciferase reporter construct
# Format: cell-based
# Settings: Homo sapiens, 24 hours incubation, RPMI medium with 2% lipoprotein-deficient serum, tested 10^-6M to 10^-9M
# Experimental: HepG2 cells, stably transfected with a construct comprising the LDL-r promoter and the luciferase reporter gene, were seeded at 50,000 cells/well in 96 well plates. After 1 day cells were incubated with compounds for 24 hours in RPMI medium containing 2% of lipoprotein-deficient serum. Compounds were tested from 10^−6M to 10^−9M. Cell lysates were prepared and the luciferase activity was measured by the luciferase assay system (Promega). Induction of luciferase activity was calculated taking untreated cells as control. The ED50 of each compounds was determined compared to the ED50 of an internal standard.
row,EC50,Compound
1,7 nM,Cn1cc(C2CCN(CCCCNC(=O)c3ccc(-c4ccc(C(F)(F)F)cc4)c(CO)c3)CC2)c2ccccc21 [Example 1]
2,10 nM,"COc1c(C2CCN(CCCCNC(=O)c3ccc(-c4ccc(Cl)cn4)cc3)CC2)ccc2c1CCCC2 [Example 32, 4-(5-Chloro-pyridin-2-yl)-N-{4-[4-(1-methoxy-5,6,7,8-tetrahydro-naphthalen-2-yl)-piperidin-1-yl]-butyl}-benzamide]"

# System: not given
# Test: not given
# Settings: not given
row,melting point,Compound
1,150 °C,"CCOc1cc(CC)ccc1C1CCN(CCCCNC(=O)c2sc(-c3ccc(C(F)(F)F)cc3)nc2CO)CC1 [Example 4, 4-Hydroxymethyl-2-(4-trifluoromethyl-phenyl)-thiazole-5-carboxylic acid {4-[4-(2-ethoxy-4-ethyl-phenyl)-piperidin-1-yl]-butyl}-amide]"
2,212 °C,"COc1c(C2CCN(CCCCNC(=O)c3sc(-c4ccc(C#N)cc4)nc3CO)CC2)ccc2c1CCCC2 [Example 7, 2-(4-Cyano-phenyl)-hydroxymethyl-thiazole-5-carboxylic acid {4-[4-(1-methoxy-5,6,7,8-tetrahydro-naphthalen-2-yl)-piperidin-1-yl]-butyl}-amide]"
3,151 °C,"COc1c(C2CCN(CCCCNC(=O)c3sc(-c4ccc(Cl)cc4)nc3C)CC2)ccc2c1CCCC2 [Example 12, 2-(4-Chloro-phenyl)4-methyl-thiazole-5-carboxylic acid {4-[4-(1-methoxy-5,6,7,8-tetrahydro-naphthalen-2-yl)-piperidin-1-yl]-butyl}-amide]"
4,185 to 186 °C,COc1c(C2CCN(CCCCNC(=O)c3[nH]nc(-c4ccc(C#N)cc4)c3CO)CC2)ccc2c1CCCC2 [Example 14]
5,157 °C,"COc1c(C2CCN(CCCCNC(=O)c3oc(-c4ccc(C#N)cc4)nc3C)CC2)ccc2c1CCCC2 [Example 15, 2-(4-Cyano-phenyl)-4-methyl-oxazole-5-carboxylic acid {4-[4-(1-methoxy-5,6,7,8-tetrahydro-naphthalen-2-yl)-piperidin-1-yl]-butyl}amide]"
6,160 to 162 °C,"COc1c(C2CCN(CCCCNC(=O)c3oc(-c4ccc(C#N)cc4)nc3CO)CC2)ccc2c1CCCC2 [Example 16, 2-(4-Cyano-phenyl)-4-hydroxymethyl-oxazole-5-carboxylic acid {4-[4-(1-methoxy-5,6,7,8-tetrahydro-naphthalen-2-yl)-piperidin-1-yl]-butyl}-amide]"
7,170 °C,COc1c(C2CCN(CCCCNC(=O)c3ccc(-c4ccc(C(=O)N(C)C)cc4)cc3)CC2)ccc2c1CCCC2 [Example 19]
8,216 to 218 °C,"COc1c(C2CCN(CCCCNC(=O)c3ccc(-c4ccc(C(C)=O)s4)cc3)CC2)ccc2c1CCCC2 [Example 20, 4-(5-Acetyl-thiophen-2-yl)-N-{4-[4-(1-methoxy-5,6,7,8-tetrahydro-naphthalen-2-yl)-piperidin-1-yl]-butyl}-benzamide]"
9,182 to 184 °C,"COc1c(C2CCN(CCCCNC(=O)c3ccc(-c4ccc(NS(=O)(=O)CC(F)(F)F)cc4)cc3)CC2)ccc2c1CCCC2 [Example 22, 4′-(2,2,2-Trifluoro-ethanesulfonylamino)-biphenyl4-carboxylic acid {4-[4-(1-methoxy 5,6,7,8-tetrahydro-naphthalen-2-yl)-piperidin-1-yl]-butyl}-amide]"
10,185 to 187 °C,"COc1c(C2CCN(CCCCNC(=O)c3ccc(-c4ccc(Cl)s4)cc3)CC2)ccc2c1CCCC2 [Example 23, 4-(5-Chloro-thiophen-2-yl)-N-{4-[4-(1-methoxy-5,6,7,8-tetrahydro-naphthalen-2-yl)-piperidin-1-yl]-butyl}-benzamide]"
11,188 to 190 °C,COc1c(C2CCN(CCCCNC(=O)c3ccc(-c4ccc(NS(=O)(=O)C(C)C)cc4)cc3)CC2)ccc2c1CCCC2 [Example 24]
12,199 °C,COc1c(C2CCN(CCCCNC(=O)c3ccc(-c4ccc(Cl)cc4)c(O)c3)CC2)ccc2c1CCCC2 [Example 25]
13,197 to 199 °C,"COc1c(C2CCN(CCCCNC(=O)c3ccc(-c4ccc(C(=O)C(F)(F)F)cc4)cc3)CC2)ccc2c1CCCC2 [Example 26, 4′-(2,2,2-Trifluoro-acetyl)-biphenyl-4-carboxylic acid {4-[4-(1-methoxy-5,6,7,8-tetrahydro-naphthalen-2-yl)-piperidin-1-yl]-butyl}-amide]"
14,226 to 228 °C,"COc1c(C2CCN(CCCCNC(=O)c3ccc(-c4ccc(NC(=O)C(F)(F)F)cc4)cc3)CC2)ccc2c1CCCC2 [Example 29, 4′-(2,2,2-Trifluoro-acetylamino)-biphenyl-4-carboxylic acid {4-[4-(1-methoxy-5,6,7,8-tetrahydro-naphthalen-2-yl)-piperidin-1-yl]-butyl}-amide]"
15,220 to 222 °C,"COc1c(C2CCN(CCCCNC(=O)c3ccc(-c4ccc(C#N)cn4)cc3)CC2)ccc2c1CCCC2 [Example 30, 4-(5-Cyano-pyridin-2-yl)-N-{4-[4-(1-methoxy-5,6,7,8-tetrahydro-naphthalen-2-yl)-piperidin-1-yl]-butyl}-benzamide]"
16,236 to 238 °C,"COc1c(C2CCN(CCCCNC(=O)c3ccc(-c4ccsc4C#N)cc3)CC2)ccc2c1CCCC2 [Example 31, 4-(2-Cyano-thiophen-3-yl)-N-{4-[4-(1-methoxy-5,6,7,8-tetrahydro-naphthalen-2-yl)-piperidin-1-yl]-butyl}-benzamide]"
17,213 to 215 °C,"COc1c(C2CCN(CCCCNC(=O)c3ccc(-c4ccc(Cl)cn4)cc3)CC2)ccc2c1CCCC2 [Example 32, 4-(5-Chloro-pyridin-2-yl)-N-{4-[4-(1-methoxy-5,6,7,8-tetrahydro-naphthalen-2-yl)-piperidin-1-yl]-butyl}-benzamide]"
18,208 to 210 °C,"COc1c(C2CCN(CCCCNC(=O)c3ccc(-c4csc(C(C)=O)c4)cc3)CC2)ccc2c1CCCC2 [Example 33, 4-(5-Acetyl-thiophen-3-yl)-N-{4-[4-(1-methoxy-5,6,7,8-tetrahydro-naphthalen-2-yl)-piperidin-1-yl]-butyl}-benzamide]"
19,202 to 204 °C,COc1c(C2CCN(CCCCNC(=O)c3ccc(-c4ccc(Cl)nc4)cc3)CC2)ccc2c1CCCC2 [Example 34]
20,192 to 194 °C,"COc1c(C2CCN(CCCCNC(=O)c3ccc(-c4ccc(Cl)nn4)cc3)CC2)ccc2c1CCCC2 [Example 35, 4-(6-Chloro-pyridazin-3-yl)-N-{4-[4-(1-methoxy-5,6,7,8-tetrahydro-naphthalen-2-yl)-piperidin-1-yl]-butyl}-benzamide]"
21,180 to 182 °C,COc1c(C2CCN(CCCCNC(=O)c3ccc(-c4ccc(C#N)o4)cc3)CC2)ccc2c1CCCC2 [Example 36]
22,103 to 105 °C,"COc1c(C2CCN(CCCCNC(=O)c3ccc(-c4ccc(Cl)cc4)cn3)CC2)ccc2c1CCCC2 [Example 37, 5-(4-Chloro-phenyl)-pyridine-2-carboxylic acid {4-[4-(1-methoxy-5,6,7,8-tetrahydro-naphthalen-2-yl)piperidin-1-yl]-butyl}-amide]"
23,184 to 186 °C,"COc1c(C2CCN(CCCCNC(=O)c3ccc(-c4ccc(Cl)cc4)nc3)CC2)ccc2c1CCCC2 [Example 38, 6-(4-Chloro-phenyl)-N-{4-[4-(1-methoxy-5,6,7,8-tetrahydro-naphthalen-2-yl)-piperidin-1-yl]-butyl}-nicotinamide]"
24,166 to 168 °C,"COc1c(C2CCN(CCCCNC(=O)c3ccc(-c4ccc(C#N)cc4)nc3)CC2)ccc2c1CCCC2 [Example 39, 6-(4-Cyano-phenyl)-N-{4-[4-(1-methoxy-5,6,7,8-tetrahydro-naphthalen-2-yl)-piperidin-1-yl]-butyl}-nicotinamide]"
25,175 to 177 °C,"COc1c(C2CCN(CCCCNC(=O)c3ccc(-c4ccc(Cl)s4)nc3)CC2)ccc2c1CCCC2 [Example 40, 6-(5-Chloro-thiophen-2-yl)-N-{4-[4-(1-methoxy-5,6,7,8-tetrahydro-naphthalen-2-yl)-piperidin-1-yl]-butyl}-nicotinamide]"
26,140 °C,"COc1c(C2CCN(CCCCNC(=O)c3ccc(-c4ccc(C#N)cc4)cn3)CC2)ccc2c1CCCC2 [Example 41, 5-(4-Cyano-phenyl)-pyridine-2-carboxylic acid {4-[4-(1-methoxy-5,6,7,8-tetrahydro-naphthalen-2-yl)-piperidin-1-yl]-butyl}-amide]"
27,186 to 188 °C,"COc1c(C2CCN(CCCCNC(=O)c3ccc(-c4ccc(C#N)s4)nc3)CC2)ccc2c1CCCC2 [Example 42, 6-(5-Cyano-thiophen-2-yl)-N-{4-[4-(1-methoxy-5,6,7,8-tetrahydro-naphthalen-2-yl)-piperidin-1-yl]-butyl}-nicotinamide]"
28,179 to 181 °C,"COc1c(C2CCN(CCCCNC(=O)c3ccc(-c4ccc(C#N)nc4)cc3)CC2)ccc2c1CCCC2 [Example 43, 4-(6-Cyano-pyridin-3-yl)-N-{4-[4-(1-methoxy-5,6,7,8-tetrahydro-naphthalen-2-yl)-piperidin-1-yl]-butyl}-benzamide]"
29,202 °C,"COc1c(C2CCN(CCCCNC(=O)c3ccc(-c4cnc(C#N)nc4)cc3)CC2)ccc2c1CCCC2 [Example 44, 4-(2-Cyano-pyrimidin-5-yl)-N-{4-[4-(1-methoxy-5,6,7,8-tetrahydro-naphthalen-2-yl)-piperidin-1-yl]-butyl}-benzamide]"
